According to patent US20120276560A1, “BIOMARKERS FOR ASSESSING SIALIC ACID DEFICIENCIES” (priority 2010, published 2012):

Tests used:
[1] = tested on: Gne^−/− hGNED176V-Tg mice; conditions: administration in water; Malicdan et al. 2009; cited from earlier work
[2] = tested on: mice homozygous for the M712T Gne mutation; conditions: ManNAc in water to mutant mice; Galeano et al. 2007; cited from earlier work
PSA-NCAM [3] = experiment: Western blot of serum PSA-NCAM (RNL-1 antibody) in HIBM patient on ManNAc; format: in vivo, human; conditions: serum of ManNAc self-treated HIBM patient (2 years), FIG. 3 lane 7
Experimental: (§1) Serum samples from normal individuals, HIBM patients before treatment, patients suffering from myopathy but not HIBM, and a HIBM patient on ManNAc therapy for 2 years were purified to reduce serum proteins. The samples were subjected to SDS PAGE and stained with a monoclonal antibody to NCAM (RNL-1, SantaCruz Biotech, Inc., CA) capable of detecting sialylated and unsialylated forms of NCAM (FIGS. 2 and 3). As a control, serum samples from healthy individuals were prepared as described above and treated with sialidase to remove sialic acid.
(§2) For Western blotting, serum protein was extracted from 50 ul serum samples using Mem-PER® Eukaryotic Membrane Protein Extraction Reagent Kit (Thermo Scientific), then the hydrophilic (top) layer was cleaned and purified by SDS-PAGE Sample Prep Kit (Thermo Scientific). Final protein concentration was measured by BradfordUltra (Expedeon), and […] protein (15 uL) loaded per lane for electrophoresis separation. […] Primary (RNL-1, SantaCruz Biotech, Inc., CA) and secondary antibodies were applied, and detected using horseradish peroxidase (HRP) chemi-luminescence substrate (FIG. 3). […]
(§3) For desialylated control sample, serum protein from healthy non-myopathic individuals was treated with Vibrio cholerae neuroaminidase (Sigma) (FIG. 3, lane 8). HIBM patients who were routinely ingesting N-Acetylmannosamine (ManNAc) were analyzed as well (FIG. 3, lane 7).

PSA-NCAM [4] = experiment: Neuraminidase digestion of normal human serum, Western blot with C-20 polyclonal antibody; format: biochemical; conditions: 37° C. 4 hours, 0.35 m unit enzyme per μl serum, FIG. 5 lane 5
Experimental: Experiments were performed to investigate the pattern of serum PSA-NCAM sialylation between normal controls and HIBM patients using a polyclonal antibody raised against human PSA-NCAM. Human serum was purified by a two-steps protocol to enrich PSA-NCAM. Raw sera from both normal human and HIBM patient were extracted by Mem-PER® membrane protein extraction kit (Thermo Scientific) according to the manufacturer's protocol. Serum was first mixed with a detergent and then a second detergent was added to solubilize membrane proteins. After centrifugation at 10,000 g for 3 minutes, the mixture was incubated at 37° C. to separate hydrophobic proteins from hydrophilic proteins through phase partitioning. The top hydrophilic layer was then further purified by SDS-PAGE sample prep kit (Thermo Scientific) to remove detergents and other contaminants that interfere with SDS-PAGE analysis.
Purified serum was incubated with Vibrio cholera neuraminidase (Sigma) at 37° C. for 4 hours in order to cleave sialic acid (SA) from serum polysialic acid-glycoproteins, including PSA-NCAM. Digestion was carried out at a concentration of 0.35 m unit enzyme per μl of serum. […]
Proteins were analyzed on a 10% Mini-Protean precast gel (BioRad) under reducing condition with 5% 2-mercaptoethanol. Final protein concentration was measured by Bradford Ultra (Expedeon). […]

PSA-NCAM [5] = experiment: Sialidase treatment of normal human serum, Western blot with RNL-1 antibody; format: biochemical; conditions: normal human serum treated with sialidase
Experimental: as §1, §2, §3

PSA-NCAM [6] = experiment: Neuraminidase digestion of normal human serum, Western blot with 123C3 antibody; format: biochemical; conditions: 37° C. 4 hours, 1 m unit enzyme per 3 μg protein, FIG. 4A lane 2, estimated
Experimental: Experiments were performed to determine whether PSA-NCAM can be detected in human serum using well-defined mouse monoclonal antibodies raised against human PSA-NCAM (123C3). Human serum was purified by Aurum serum protein kit (Bio-Rad) to remove albumin and IgG which can interfere with SDS-PAGE analysis. Raw serum was diluted 4 times with protein binding buffer (supplied in the kit) and applied to the column. The albumin/IgG depleted serum was eluted by centrifugation at 10,000 g for 20 seconds and protein concentration was determined by modified Lowry assay (Bio-Rad DC protein assay).
Purified serum was incubated in neuraminidase from Vibrio cholera (Sigma) at 37° C. for 4 hours in order to cleave sialic acid (SA) from serum polysialic acid-glycoproteins, including PSA-NCAM. Digestion was carried out at a concentration of 1 m unit enzyme per 3 μg of protein in 20 mM Tris buffer, pH 5.8. A negative control was included in the experiment under the same condition but without adding the neuraminidase. At the end of incubation, the mixture was cleaned up with micro bio-spin P30 columns (BioRad).
Proteins were analyzed on 10% denaturing Tris-glycine SDS-PAGE gel (Invitrogen) under reducing condition. […]

## CC(=O)N[C@@H]1C(O)O[C@H](CO)[C@@H](O)[C@@H]1O (some centres unmarked) [ManNAc, N-acetylmannosamine]
[1]
  muscle atrophy and weakness: reduced or prevented
[2]
  renal histology (podocyte foot processes): improved renal histology
  sialylation of brain PSA-NCAM: increased sialylation of brain PSA-NCAM
  sialylation of renal podocalyxin: increased sialylation of renal podocalyxin
  survival: improved survival
PSA-NCAM [3]
  PSA-NCAM signal at ˜150 kD band on Western blot: improved signal

## CC(=O)N[C@H]1[C@H]([C@H](O)[C@H](O)CO)OC(O)(C(=O)O)C[C@@H]1O (some centres unmarked) [sialic acid, 5-N-acetylneuraminic acid]
[1]
  muscle atrophy and weakness: reduced or prevented

## neuraminidase: neuraminidase from Vibrio cholera (Sigma), used to cleave sialic acid from serum glycoproteins
PSA-NCAM [4]
  intensity of the 130 kDa and 60 kDa PSA-NCAM bands: significantly reduced in intensity
PSA-NCAM [5]
  upper and middle PSA-NCAM bands on Western blot: disappeared
PSA-NCAM [6]
  reduction of molecular weight of the PSA-NCAM triplet: 10-15 kDa

## sialyl-lactose
[1]
  muscle atrophy and weakness: reduced or prevented
